Molecular target: T1, porcine liver COMT (Sus scrofa, UniProt Q99028)
T1 sequence (Q99028 1-186): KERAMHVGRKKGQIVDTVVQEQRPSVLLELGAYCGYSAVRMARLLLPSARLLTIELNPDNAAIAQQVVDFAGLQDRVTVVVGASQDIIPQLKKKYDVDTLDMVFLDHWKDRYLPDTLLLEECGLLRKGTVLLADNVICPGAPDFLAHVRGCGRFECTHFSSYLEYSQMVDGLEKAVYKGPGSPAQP
Experiment: Catechol O-methyltransferase activity assay
Assay type: biochemical
Conditions: 1 mM sinefungin; 1 mM SAM; 2 h at 37 °C

In the case of `Nc1ncnc2c1ncn2[C@@H]1O[C@H](C[C@@H](N)CC[C@H](N)C(=O)O)[C@@H](O)[C@H]1O` [singfungin, sinefungin], the “inhibition of COMT activity” value is reported as “significantly inhibited”.
